In publication PMC7313537 (PLoS ONE, 2020):
Where two headings read alike, the source gives them in different places.

Legend:
DMS-114 (lung cancer) = experiment: Cell viability assay (CellTiter-Glo); format: cell-based; conditions: Homo sapiens, FGFR1 amplification, 72 hours, read-out: Mean GI50 ± S.D.
AXL = target: T1, AXL (Homo sapiens, UniProt P30530); experiment: Enzyme selectivity panel; format: biochemical; conditions: 1 mM ATP
T1 construct: purchased In-house HTRF panel (56 kinases) and PerkinElmer (161-kinase panel)
Procedure: (§1) The kinase assays were carried out at room temperature in HEPES 50 mM, pH 7.0, NaN3 0.02%, BSA 0.01%, Orthovanadate 0.1 mM, DTT 1 mM, MgCl2 10 mM in a final volume of 10 µL. Test compounds were transferred to the plate wells by ECHO liquid handler (Labcyte, San Jose, CA) with 0.5% dimethyl sulfoxide (DMSO) in the final assay. Peptide/kinase mixtures were diluted in the appropriate enzymatic buffer and 5µL of the mixture was added to a 384-well small volume black plate. Reactions were initiated by the addition of 5 µL ATP in reaction buffer, the final reaction mixture consisted of 500 nM peptide substrate, 1 mM ATP, and appropriate amount of specific kinase. […] The plates were then sealed and centrifuged at 1800 rpm for 2 minutes. […] Half maximal inhibitory concentration (IC50) determination was performed by fitting the curve of percent control activity versus the log of the compound concentration using the GraphPad Prism 6.0 software.

TF1-BCR-ABL = experiment: Cell viability assay (CellTiter-Glo); format: cell-based; conditions: AML/recombinant; lacking FGFR alterations
AURKA = AURKA (Homo sapiens, UniProt O14965); experiment: Enzyme selectivity panel; format: biochemical; conditions: 1 mM ATP
Procedure: as §1

BTK = BTK (Homo sapiens, UniProt Q06187); experiment: Enzyme selectivity panel; format: biochemical; conditions: 1 mM ATP
Procedure: as §1

FAK = FAK (Homo sapiens, UniProt Q05397); experiment: Enzyme selectivity panel; format: biochemical; conditions: 1 mM ATP
Procedure: as §1

[1] = cited from earlier work
HCC-422 = experiment: Cell viability assay (CellTiter-Glo); format: cell-based; conditions: Lung cancer; lacking FGFR alterations
ROCK1 = ROCK1 (Homo sapiens, UniProt Q13464); experiment: Enzyme selectivity panel; format: biochemical; conditions: 1 mM ATP
Chain of ROCK1 (Q13464 whole entry, species assumed): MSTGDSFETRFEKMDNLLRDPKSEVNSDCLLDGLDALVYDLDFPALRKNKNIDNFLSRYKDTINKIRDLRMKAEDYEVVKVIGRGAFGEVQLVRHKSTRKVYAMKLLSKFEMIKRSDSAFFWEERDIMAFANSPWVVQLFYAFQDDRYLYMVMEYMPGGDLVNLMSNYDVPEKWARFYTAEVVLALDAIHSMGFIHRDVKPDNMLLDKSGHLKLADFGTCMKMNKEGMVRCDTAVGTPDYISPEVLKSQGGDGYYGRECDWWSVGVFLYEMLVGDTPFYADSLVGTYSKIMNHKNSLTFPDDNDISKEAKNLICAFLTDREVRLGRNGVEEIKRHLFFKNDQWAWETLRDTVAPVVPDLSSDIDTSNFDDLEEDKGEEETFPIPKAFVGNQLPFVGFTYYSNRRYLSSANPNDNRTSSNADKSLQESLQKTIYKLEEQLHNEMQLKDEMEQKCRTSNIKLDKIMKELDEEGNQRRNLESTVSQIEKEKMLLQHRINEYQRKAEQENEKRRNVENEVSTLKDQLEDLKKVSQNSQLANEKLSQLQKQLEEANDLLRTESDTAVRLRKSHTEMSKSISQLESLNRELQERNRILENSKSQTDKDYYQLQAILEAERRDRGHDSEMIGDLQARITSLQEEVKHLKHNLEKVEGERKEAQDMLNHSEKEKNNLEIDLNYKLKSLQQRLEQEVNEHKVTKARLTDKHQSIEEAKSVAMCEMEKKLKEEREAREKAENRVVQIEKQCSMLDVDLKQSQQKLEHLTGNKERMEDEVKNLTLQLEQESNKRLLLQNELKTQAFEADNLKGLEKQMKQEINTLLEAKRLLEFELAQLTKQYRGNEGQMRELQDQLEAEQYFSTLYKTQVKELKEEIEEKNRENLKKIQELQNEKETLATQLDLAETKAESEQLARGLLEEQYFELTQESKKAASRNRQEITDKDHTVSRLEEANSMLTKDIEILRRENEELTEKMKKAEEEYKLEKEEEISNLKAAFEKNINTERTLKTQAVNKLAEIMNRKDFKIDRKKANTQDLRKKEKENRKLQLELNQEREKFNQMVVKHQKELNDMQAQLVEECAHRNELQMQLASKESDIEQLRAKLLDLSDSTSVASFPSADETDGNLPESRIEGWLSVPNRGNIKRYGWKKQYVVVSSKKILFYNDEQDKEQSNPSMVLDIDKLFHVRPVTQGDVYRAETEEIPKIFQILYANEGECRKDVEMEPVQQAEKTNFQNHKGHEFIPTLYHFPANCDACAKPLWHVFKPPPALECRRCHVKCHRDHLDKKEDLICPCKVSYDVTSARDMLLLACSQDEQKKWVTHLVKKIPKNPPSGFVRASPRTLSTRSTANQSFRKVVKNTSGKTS
Procedure: as §1

EPHA2 = EPHA2 (Homo sapiens, UniProt P29317); experiment: Enzyme selectivity panel; format: biochemical; conditions: 1 mM ATP
Procedure: as §1

MAP3K8 = MAP3K8 (Homo sapiens, UniProt P41279); experiment: Enzyme selectivity panel; format: biochemical; conditions: 1 mM ATP
Procedure: as §1

MINK = MINK (Homo sapiens, UniProt Q8N4C8); experiment: Enzyme selectivity panel; format: biochemical; conditions: 1 mM ATP
Chain of MINK (Q8N4C8 whole entry): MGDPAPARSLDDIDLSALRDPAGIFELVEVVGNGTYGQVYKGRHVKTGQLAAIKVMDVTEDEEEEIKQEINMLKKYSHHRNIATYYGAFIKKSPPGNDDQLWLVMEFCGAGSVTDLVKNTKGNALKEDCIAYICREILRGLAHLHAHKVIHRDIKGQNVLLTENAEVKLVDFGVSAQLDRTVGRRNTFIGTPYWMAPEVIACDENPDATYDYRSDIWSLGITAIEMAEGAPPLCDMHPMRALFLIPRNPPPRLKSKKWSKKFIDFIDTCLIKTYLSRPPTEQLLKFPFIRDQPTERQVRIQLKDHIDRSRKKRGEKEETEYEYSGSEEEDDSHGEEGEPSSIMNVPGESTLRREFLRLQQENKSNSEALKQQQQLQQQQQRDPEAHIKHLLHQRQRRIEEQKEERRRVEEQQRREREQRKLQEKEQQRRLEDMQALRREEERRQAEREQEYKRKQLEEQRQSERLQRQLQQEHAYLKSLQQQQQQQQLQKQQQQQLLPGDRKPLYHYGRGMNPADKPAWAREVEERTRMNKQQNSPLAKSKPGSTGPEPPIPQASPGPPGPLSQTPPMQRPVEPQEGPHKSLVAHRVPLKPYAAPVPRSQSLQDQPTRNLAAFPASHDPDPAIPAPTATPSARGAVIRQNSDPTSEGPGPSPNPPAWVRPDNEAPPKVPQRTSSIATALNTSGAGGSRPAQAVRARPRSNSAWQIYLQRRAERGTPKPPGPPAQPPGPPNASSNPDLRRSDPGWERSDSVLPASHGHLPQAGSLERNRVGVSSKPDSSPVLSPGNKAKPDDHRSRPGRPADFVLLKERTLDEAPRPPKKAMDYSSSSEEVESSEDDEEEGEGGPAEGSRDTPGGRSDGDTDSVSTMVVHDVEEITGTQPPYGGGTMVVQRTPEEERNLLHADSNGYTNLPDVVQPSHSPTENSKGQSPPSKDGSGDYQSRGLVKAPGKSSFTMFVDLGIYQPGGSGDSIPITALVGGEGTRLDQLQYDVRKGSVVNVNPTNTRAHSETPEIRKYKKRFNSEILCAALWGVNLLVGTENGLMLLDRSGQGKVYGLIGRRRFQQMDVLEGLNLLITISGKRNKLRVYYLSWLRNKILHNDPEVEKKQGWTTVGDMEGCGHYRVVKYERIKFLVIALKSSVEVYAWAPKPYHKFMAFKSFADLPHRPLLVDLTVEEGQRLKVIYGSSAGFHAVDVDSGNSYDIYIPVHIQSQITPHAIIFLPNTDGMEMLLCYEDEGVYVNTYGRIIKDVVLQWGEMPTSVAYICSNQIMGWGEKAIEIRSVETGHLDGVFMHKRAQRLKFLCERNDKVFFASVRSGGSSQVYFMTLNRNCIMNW
Procedure: as §1

CHEK2 = CHEK2 (Homo sapiens, UniProt O96017); experiment: Enzyme selectivity panel; format: biochemical; conditions: 1 mM ATP
Procedure: as §1

GSK3B = target: T2, GSK3B (Homo sapiens, UniProt P49841); experiment: Enzyme selectivity panel; format: biochemical; conditions: 1 mM ATP
T2 construct: purchased In-house HTRF panel (56 kinases) and PerkinElmer (161-kinase panel)
T2 sequence (P49841 whole entry, species assumed): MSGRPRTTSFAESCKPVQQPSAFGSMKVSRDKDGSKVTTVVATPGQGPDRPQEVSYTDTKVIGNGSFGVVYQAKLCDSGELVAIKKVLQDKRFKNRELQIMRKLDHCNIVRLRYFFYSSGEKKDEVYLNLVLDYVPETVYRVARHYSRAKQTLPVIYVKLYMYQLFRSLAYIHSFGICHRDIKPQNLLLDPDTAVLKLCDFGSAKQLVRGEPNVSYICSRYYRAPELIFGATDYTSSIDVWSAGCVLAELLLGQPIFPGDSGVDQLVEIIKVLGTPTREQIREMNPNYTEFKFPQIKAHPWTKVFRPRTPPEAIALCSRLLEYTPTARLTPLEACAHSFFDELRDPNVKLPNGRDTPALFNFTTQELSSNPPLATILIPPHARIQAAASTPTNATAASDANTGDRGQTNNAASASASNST
Procedure: as §1

LOK = LOK (Homo sapiens, UniProt O94804); experiment: Enzyme selectivity panel; format: biochemical; conditions: 1 mM ATP
Procedure: as §1

RET = RET (Homo sapiens, UniProt P07949); experiment: Enzyme selectivity panel; format: biochemical; conditions: 1 mM ATP
Procedure: as §1

DDR2 = target: T3, DDR2 (Homo sapiens, UniProt Q16832); experiment: Enzyme selectivity panel; format: biochemical; conditions: 1 mM ATP
T3 construct: purchased In-house HTRF panel (56 kinases) and PerkinElmer (161-kinase panel)
Procedure: as §1

HIPK3 = HIPK3 (Homo sapiens, UniProt Q9H422); experiment: Enzyme selectivity panel; format: biochemical; conditions: 1 mM ATP
Chain of HIPK3 (Q9H422 whole entry, species assumed): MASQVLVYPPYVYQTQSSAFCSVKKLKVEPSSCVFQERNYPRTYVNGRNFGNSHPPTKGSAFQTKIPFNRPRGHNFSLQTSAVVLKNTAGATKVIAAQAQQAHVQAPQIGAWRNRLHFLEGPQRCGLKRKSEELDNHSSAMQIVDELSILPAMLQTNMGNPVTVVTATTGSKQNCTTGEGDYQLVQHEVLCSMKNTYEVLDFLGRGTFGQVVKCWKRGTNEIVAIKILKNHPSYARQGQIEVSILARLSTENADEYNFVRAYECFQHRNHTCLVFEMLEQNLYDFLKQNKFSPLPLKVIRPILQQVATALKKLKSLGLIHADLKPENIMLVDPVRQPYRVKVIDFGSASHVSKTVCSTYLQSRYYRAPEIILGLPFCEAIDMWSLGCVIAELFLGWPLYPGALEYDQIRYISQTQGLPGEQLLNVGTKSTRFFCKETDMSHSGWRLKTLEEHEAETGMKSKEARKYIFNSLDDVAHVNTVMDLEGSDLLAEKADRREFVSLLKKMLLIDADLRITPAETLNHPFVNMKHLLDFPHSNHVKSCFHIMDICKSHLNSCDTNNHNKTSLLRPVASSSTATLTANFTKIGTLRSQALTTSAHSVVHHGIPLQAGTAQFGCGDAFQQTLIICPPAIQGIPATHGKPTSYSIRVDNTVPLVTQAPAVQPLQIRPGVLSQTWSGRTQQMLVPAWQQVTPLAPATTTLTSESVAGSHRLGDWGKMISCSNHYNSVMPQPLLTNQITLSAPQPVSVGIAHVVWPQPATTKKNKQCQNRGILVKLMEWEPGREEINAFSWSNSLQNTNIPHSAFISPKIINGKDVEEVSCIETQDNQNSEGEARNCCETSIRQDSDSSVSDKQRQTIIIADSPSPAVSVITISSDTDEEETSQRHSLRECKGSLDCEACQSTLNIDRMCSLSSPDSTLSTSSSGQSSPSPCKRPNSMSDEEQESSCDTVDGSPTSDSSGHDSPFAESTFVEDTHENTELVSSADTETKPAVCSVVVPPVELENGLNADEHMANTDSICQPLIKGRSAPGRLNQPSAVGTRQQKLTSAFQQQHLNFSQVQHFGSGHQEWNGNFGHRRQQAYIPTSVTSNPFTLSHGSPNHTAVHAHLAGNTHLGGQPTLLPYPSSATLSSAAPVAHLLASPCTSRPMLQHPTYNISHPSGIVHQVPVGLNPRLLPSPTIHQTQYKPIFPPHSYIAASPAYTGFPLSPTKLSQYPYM
Procedure: as §1

hERG potassium current = target: T4, hERG potassium current (Homo sapiens, UniProt Q12809); experiment: hERG potassium current (ChanTest); format: cell-based; conditions: estimated; precise IC50 not calculated due to compound insolubility; data provided by ChanTest; read-out: IC50 for the inhibitory effect on hERG potassium current
T4 construct: ChanTest Corporation, Cleveland, OH

PIM2 = target: T5, PIM2 (Homo sapiens, UniProt Q9P1W9); experiment: Enzyme selectivity panel; format: biochemical; conditions: 1 mM ATP
T5 construct: purchased In-house HTRF panel (56 kinases) and PerkinElmer (161-kinase panel)
Procedure: as §1

RSK2 = RSK2 (Homo sapiens, UniProt P51812); experiment: Enzyme selectivity panel; format: biochemical; conditions: 1 mM ATP
Procedure: as §1

[2] = Plasma exposure after single oral dose in KATO III tumor-bearing mice; format: in vivo, mouse; conditions: single oral dose of 0.1, 1, and 10 mg/kg
Procedure: (A) Pharmacokinetic profile of INCB054828 in the mouse. […] (B) Pharmacokinetic-pharmacodynamic analyses in KATO III tumors. […] Plasma was subjected to analytical analysis and phospho-FGFR2 in tumor homogenate was determined by ELISA.

[3] = Plasma protein binding (equilibrium dialysis); format: in vitro ADME; conditions: read-out: PPB (% free)
Procedure: The final DMSO content in all cases was <0.1%. Each condition was incubated in duplicate. For protein binding determination, the Multi-Equilibrium Dialyzer System™ and diachema membranes from Harvard Apparatus (Holliston, MA) were utilized. Equilibrium dialysis was carried out in Teflon cells separated by a dialysis membrane with a molecular weight cutoff of 10,000 Daltons. […] The cells were rotated at a speed of 12 rpm in a 37°C water bath for 2 hours. Following the incubation period, buffer and serum/plasma samples were drained separately into empty preweighed glass test tubes. The tubes were reweighed, and the exact volume of sample recovered from each side of the dialysis cell was calculated using the mass. A 75-μL aliquot of each sample (buffer or serum/plasma) was added to a 96-well plate containing a protein precipitation solution of 100% methanol and 0.2 μM dextrorphan as the internal standard; 75 μL of blank buffer or plasma/serum was added to the plate to ensure identical composition across all samples. Prior to analysis, samples prepared in the 96-well plate were vigorously vortexed for approximately 5 minutes and centrifuged for 10 minutes at ~1700 × g to remove denatured proteins and particulate matter. The supernatant was transferred and analyzed using LC-MS/MS.

SYK = SYK (Homo sapiens, UniProt P43405); experiment: Enzyme selectivity panel; format: biochemical; conditions: 1 mM ATP
Procedure: as §1

MSSK1 = MSSK1 (Homo sapiens, UniProt Q9UPE1); experiment: Enzyme selectivity panel; format: biochemical; conditions: 1 mM ATP
Procedure: as §1

RPS6KB1 = RPS6KB1 (Homo sapiens, UniProt P23443); experiment: Enzyme selectivity panel; format: biochemical; conditions: 1 mM ATP
Chain of RPS6KB1 (P23443 whole entry, species assumed): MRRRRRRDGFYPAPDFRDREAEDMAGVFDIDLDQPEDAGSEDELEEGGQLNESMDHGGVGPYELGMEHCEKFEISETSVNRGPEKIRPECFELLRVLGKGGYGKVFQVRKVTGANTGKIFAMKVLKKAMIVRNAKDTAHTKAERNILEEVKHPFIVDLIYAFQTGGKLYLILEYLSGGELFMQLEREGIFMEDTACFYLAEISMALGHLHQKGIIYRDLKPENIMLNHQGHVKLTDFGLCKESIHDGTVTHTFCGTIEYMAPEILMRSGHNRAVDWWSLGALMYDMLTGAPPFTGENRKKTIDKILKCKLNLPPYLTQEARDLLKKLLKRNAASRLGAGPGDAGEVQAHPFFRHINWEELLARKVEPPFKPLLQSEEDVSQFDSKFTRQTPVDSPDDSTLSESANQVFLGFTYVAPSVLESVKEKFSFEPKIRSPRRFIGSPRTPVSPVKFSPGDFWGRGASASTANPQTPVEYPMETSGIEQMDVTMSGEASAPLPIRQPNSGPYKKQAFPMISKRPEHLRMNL
Procedure: as §1

Pharmacokinetic analyses = format: in vivo, cynomolgus monkeys; conditions: male monkey
Procedure: The i.v. formulation in dogs and monkeys was 5% DMAC and 20% sulfobutyl ether β-cyclodextrin in saline. The oral formulation in all species was 5% DMAC in 0.5% methylcellulose aqueous solution. For rats, blood samples were collected at predose, 5 (i.v. dosing only), 15, and 30 minutes, and 1, 2, 4, 6, 8, and 24 hours. For dogs, blood samples were collected at predose, 2.5 and 5 (i.v. dosing only), 15, and 30 minutes, and 1, 2, 3, 4, 6, 8, 12, and 24 hours postdose. For monkeys, blood samples were collected at predose, 5 and 10 (i.v. dosing only), 15, and 30 minutes, and 1, 2, 3, 4, 6, 8, 12, 16, and 24 hours postdose. Collected blood samples were processed to extract plasma by centrifugation and stored at −20 °C until analysis.
The plasma was protein precipitated and the diluted supernatant was analyzed using LC/MS/MS. A standard curve was prepared in plasma from 1 to 5,000 nM and processed in the same manner as the samples. The pharmacokinetic parameters were determined using WinNonLin 6.3.

For `CCN1C(=O)N(c2c(F)c(OC)cc(OC)c2F)Cc2cnc3[nH]c(CN4CCOCC4)cc3c21` [INCB054828, pemigatinib], the GI50 (DMS-114 (lung cancer)) was 0.027 µM, the IC50 (AXL) was greater than 10 µM and the GI50 (TF1-BCR-ABL) was greater than 5 µM. For the same molecule, the IC50 (AURKA) was greater than 10 µM, the IC50 (BTK) was greater than 10 µM and the IC50 (FAK) was greater than 10 µM. The “safety profile in phase 1 clinical trials” value [1] was “favorable safety profile”, the “pharmacokinetic data in patients” value ([1]; phase 1 dose-escalation study ref 33) was “low clearance and dose-linearity” and the GI50 (HCC-422) was greater than 5 µM. The IC50 (ROCK1) was greater than 10 µM, the IC50 (EPHA2) was greater than 10 µM and the IC50 (MAP3K8) was greater than 10 µM. The IC50 (MINK) was greater than 10 µM, the IC50 (CHEK2) was greater than 10 µM and the IC50 (GSK3B) was greater than 10 µM. It also gave an IC50 (LOK) greater than 10 µM, an IC50 (RET) greater than 10 µM and an IC50 (DDR2) greater than 10 µM. It also gave an IC50 (HIPK3) greater than 10 µM, an IC50 (hERG potassium current) greater than 8 µM and an IC50 (PIM2) greater than 10 µM. The IC50 (RSK2) was greater than 10 µM, the “plasma exposures, dose dependence” value [2] was “dose linear” and the fraction unbound at 2 h, 1 μM ([3]; Sprague Dawley, pH 7.4, rat plasma) was 0.03. For the same molecule, the fraction unbound at 2 h, 1 μM ([3]; pH 7.4, human plasma) was 0.113, the IC50 (SYK) was greater than 10 µM and the IC50 (MSSK1) was greater than 10 µM. The IC50 (RPS6KB1) was greater than 10 µM, the clearance (Pharmacokinetic analyses; cynomolgus monkey, plasma, intravenous 1 mg/kg) was 3.3 mL/min/kg and the Vd (Pharmacokinetic analyses; cynomolgus monkey, plasma, intravenous 1 mg/kg, read-out: Vss) was 0.584 L/kg. For the same molecule, the half-life (Pharmacokinetic analyses; cynomolgus monkey, plasma, intravenous 1 mg/kg, read-out: t½ (converted)) was 10.3 h, the bioavailability (Pharmacokinetic analyses; cynomolgus monkey, plasma, oral 2 mg/kg) was 29% and the “Hepatic ER” value (Pharmacokinetic analyses; intravenous 1 mg/kg, % of hepatic blood flow) was 8%. For the same molecule, the AUC (Pharmacokinetic analyses; oral 2 mg/kg) was 6.19 µM·h.
